Series [1] addresses T1, CNDP2 (Mus musculus, UniProt Q9D1A2).
T1 sequence (Q9D1A2 1-475): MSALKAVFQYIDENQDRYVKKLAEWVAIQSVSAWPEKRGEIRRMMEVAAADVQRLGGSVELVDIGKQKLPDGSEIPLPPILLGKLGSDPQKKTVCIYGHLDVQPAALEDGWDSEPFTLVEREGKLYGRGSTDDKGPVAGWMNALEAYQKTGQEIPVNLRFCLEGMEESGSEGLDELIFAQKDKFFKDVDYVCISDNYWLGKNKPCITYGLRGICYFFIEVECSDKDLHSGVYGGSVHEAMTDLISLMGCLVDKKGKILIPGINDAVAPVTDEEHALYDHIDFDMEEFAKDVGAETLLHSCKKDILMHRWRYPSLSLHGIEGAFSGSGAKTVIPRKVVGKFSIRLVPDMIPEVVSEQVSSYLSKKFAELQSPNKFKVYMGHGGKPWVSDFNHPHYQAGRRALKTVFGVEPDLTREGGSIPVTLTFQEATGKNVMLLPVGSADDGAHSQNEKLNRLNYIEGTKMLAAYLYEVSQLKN
The series can be described thus: In vitro synthase (condensation) activity, lysates of CNDP2-transfected HEK293T cells. Type of series: biochemical. On the set-up: expressed in transfected cells; host or cells: HEK293T (lysate). The settings on record: role: substrate; for amino acid selectivity for the BHB-ylation reaction: amino acid 20 mM with BHB 20 mM. As for the experimental part: In vitro enzyme activity assays. HEK293T cells were transfected with GFP, CNDP2 or CNDP2-E166A using PolyFect (Qiagen 301105) according to the manufacturer's instructions. The medium was changed one day post-transfection. After an additional 24 h, the cells were harvested in PBS, lysed by sonication and centrifuged (10 min at 15,000 rpm) to remove debris. Supernatant was collected and protein concentrations were adjusted. The in vitro reactions were conducted in Eppendorf tubes with 100 μL of 1 mg/mL protein and 20 mM substrates for keto amino acid synthase activity assays and. Reactions were incubated for 1 h at 37° C. and 20 μl of 1 M HCl were added to acidify the medium and to protonate keto amino acids. Reactions were vortexed and 400 μL of ethyl acetate were added to each reaction. Reactions were vortexed for 30 s to extract keto amino acids into the organic layer and centrifuged at 4° C. for 10 min at 15,000 r.p.m. A total of 300 μl from the top layer was transferred to a new Eppendorf tube and dried down under a stream of nitrogen. The residue was re-suspended in 150 μl of an 2:1:1 mixture of acetonitrile: methanol: water. The mixture was centrifuged at 4° C. for 10 min at 15,000 r.p.m. and the supernatant was transferred to a LC-MS vial.

The nature of series [2]: Human ketone ester supplementation study, plasma metabolites. The note with it: ketone ester drink cohort. Type of series: in vivo. As for the experimental part:
(§1) Targeted metabolomics. Targeted measurements were performed using an Agilent 6470 triple quadrupole LC-MS instrument. MS analysis was performed using AJS in negative mode. The AJS source parameters were set as follows: the dry gas temperature was set at 250° C. with a gas flow of 12 l/min and the nebulizer pressure at 25 psi; the sheath gas temperature was set to 300° C. with the sheath gas flow set at 12 l/min; and the capillary voltage was set to 3,500 V. Separation of polar metabolites was performed as described above in the ‘Untargeted measurements of metabolites by LC-MS’ section. Multiple reaction monitoring was performed for the indicated metabolites with the listed dwell times, fragmentor voltage, collision energies, cell accelerator voltages and polarities. Quantification of the endogenous metabolite concentrations were performed by generating a standard curve with known concentrations of each metabolite. Metabolite standards were analyzed alongside the plasma samples using the same targeted triple quadrupole LC/MS method. A calibration standard curve generated from the metabolite standard concentrations and total peak areas were used to calculate the concentrations of each endogenous metabolite. The dilution of the plasma during the sample preparation was also taken into account for the quantification.
Human ketone ester supplementation study. Following screening, eligible subjects participated in a randomized, counter-balanced, double-blind, placebo-controlled crossover trial comparing BHB supplementation versus placebo, separated by a minimum of 2 days (ClinicalTrials.gov ID NCT04194450). Pre-menopausal women were tested in the follicular phase (days 3-9). Participants were asked to refrain from structured exercise and alcohol, limit physical activity, and follow a standardized diet (~50% carbohydrate, ~30% fat, ~20% protein) on the day before each trial. After refraining from medication use for 24 hours, participants reported to the Exercise, Metabolism and Inflammation Laboratory at the University of British Columbia-Okanagan in an overnight fasted state. Anthropometric measurements were obtained prior to insertion of an indwelling intravenous catheter into the antecubital vein for repeated blood sampling. Blood was collected into EDTA tubes (BD, 367863) and immediately centrifuged at 2000 rpm for 15 min and the top layer of plasma was aliquoted and frozen at −80 °C. After baseline (0) blood sample collection, the oral BHB supplement or placebo was consumed in liquid form (~30-65 mL). The BHB supplement (H.V.M.N®, USA) in the form of the ketone monoester (R)-3-hydroxybutyl (R)-3-hydroxybutyrate (AG®, TDeltaS, Oxford, UK) contained 0.4 g mL-1 BHB, natural flavoring, and <2% stevia leaf extract. The taste-matched placebo drink contained the same natural flavoring as the ketone supplement, stevia leaf extract, 5 mL of Bittrex stock (0.005 g of denatonium benzoate powder in 40 ml of water) and 1.5 mL of arrowroot stock (2 g of arrowroot powder in 50 ml of water) to match the bitter flavor and viscosity of the ketone monoester. Supplements were dispensed into opaque 80 ml bottles with volume calculated for 0.3 g BHB/kg body weight and labelled either A or B by a third-party researcher. Blinding was maintained until completion of data collection and analyses.

Series [3] in a line: Keto-Med study, plasma metabolites. Type of series: in vivo. The settings on record: human; 4 weeks WFKD vs baseline. As for the experimental part: as §1
Keto-Med study. Keto-Med was a single-site, randomized, crossover, interventional trial comparing 2 metabolically distinct diets (well-formulated ketogenic diet, WFKD; and Mediterranean-plus diet, Med-Plus) among individuals with prediabetes and T2DM. Forty participants aged ≥18 years with prediabetes or T2DM followed the WFKD and the Med-Plus for 12 weeks each, in random order. Participants were randomly assigned into 1 of 2 different diet sequences: WFKD for 12 weeks (phase 1) and then the Med-Plus for 12 weeks (phase 2), or the opposite order. Ad libitum intake was advised, and participants were guided to follow 2 sets of dietary guidelines that shared 3 important similarities (incorporating nonstarchy vegetables and avoiding added sugars and refined grains) and 3 important differences (incorporating compared with avoiding legumes, fruits, and whole, intact grains). During the WFKD phase, participants were counseled to sustain nutritional ketosis by limiting carbohydrates to 20-50 g/day and keeping proteins to ~1.5 g/kg ideal body weight/day, with the remaining kcals coming from fats. Participants were also instructed to consume >3 servings/day of nonstarchy vegetables and maintain adequate mineral and fluid intake for the ketogenic state (sodium, 3-5 g/day; potassium, 3-4 g/day). […]

Series [4] has as its target T1, CNDP2. As to the kind of experiment: Tissue enzyme activity, WT or CNDP2-KO mouse tissue lysates. The series is classed as biochemical. The settings on record: role: product, BHB 20 mM + amino acid 20 mM; for synthesis activity in WT kidney and gut: 1 h, 37° C. As for the experimental part: (§2) Tissue enzyme activity assays. Mouse tissues were mixed with cold PBS and homogenized using a Benchmark BeadBlaster Homogenizer at 4 °C. Protein concentrations were adjusted and the resulting crude was filtered through a 0.45-μm filter to remove insoluble materials. The in vitro reactions were conducted in Eppendorf tubes with 200 μg protein and incubation with the corresponding substrates at 37° C. for 1 hour. After that time, 10 μl of HCl and 400 μl of ethyl acetate were added in the BHB and lactate reactions and the samples were vortexed for 30 s. Reactions were centrifuged at 4° C. for 10 min at 15,000 r.p.m. and total of 300 μl from the top layer was transferred to a new Eppendorf tube and dried down under a stream of nitrogen. The residue was re-suspended in 100 μl of an 2:1:1 mixture of acetonitrile: methanol: water. The mixture was centrifuged at 4° C. for 10 min at 15,000 r.p.m. and the supernatant was transferred to a LC-MS vial. For carnosine reactions, the reactions were not acidified and were directly quenched with 300 μl of an 2:1:1 mixture of acetonitrile: methanol: water after the 1 h incubation and vortexed for 30 s. The mixture was centrifuged at 4° C. for 10 min at 15,000 r.p.m. and the supernatant was transferred to a LC-MS vial.

Series [5] has as its system DIO mice. As to the kind of experiment: Chronic administration in DIO mice: body weight and food intake. Type of series: in vivo, mouse. The settings on record: for body weight, head-to-head keto amino acids: 5 days, vs vehicle. As for the experimental part: General animal information. Animal experiments were performed according to procedure approved by the Stanford University Administrative Panel on Laboratory Animal Care (APLAC). Mice were maintained in 12-hr light-dark cycles at 22° C. and ~50% relative humidity and fed a standard irradiated rodent chow diet. Where indicated, high-fat diet (D12492, Research Diets 60% kcal from fat) and ketogenic diet (D06040601, Research Diets, 80% kcal fat/15% kcal protein/5% kcal carbohydrate) was used. Male C57BL/6J (stock no. 000664) and male C57BL/6J DIO mice (stock no. 380050) were purchased from Jackson Laboratory. Male C57BL/6NCrl (stock no. 027) mice were purchased from Charles River Laboratory. Whole body CNDP2-KO mice (catalog number, C57BL/6NCrl-Cndp2em1 (IMPC) Mbp/Mmucd, RRID: MMRRC_043492-UCD) were obtained from the Mutant Mouse Regional Resource Center, a NCRR-NIH funded strain repository. For in vivo injection of mice with metabolites, compounds were dissolved in 18:1:1 (by volume) of saline/Kolliphor EL (Sigma Aldrich)/DMSO. Compounds were administered to mice daily via intraperitoneal injections at 5 μl/g body weight at the indicated doses. For all injection experiments, mice were mock injected with the vehicle for 3-5 days until body weights have stabilized. Sample sizes were determined on the basis of previous experiments using similar methodologies. For metabolite administration experiments, mice were randomly assigned to treatment groups. Experimenters were not blinded to groups.

Series [6] addresses T1, CNDP2. As to the kind of experiment: Carnosine hydrolysis (carnosinase activity) in WT or CNDP2-KO mouse tissue lysates. The settings on record: role: substrate, 10 mM carnosine. Type of series: biochemical. The procedure: as §2

Consider `CC(C)C[C@H](N)C(=O)O` [leucine], for which the “amino acid selectivity for the BHB-ylation reaction” value (shortened to “amino acid selectivity”) in series [1] is recorded as “CNDP2 catalyzed BHB-ylation”.
With `CC(CO)C(=O)O` (centres unmarked) [3-HIB, 3-hydroxisobutyric acid], the “CNDP2-dependent condensation activity with C4-hydroxycarboxylic acid isomers” value in series [1] (with phenylalanine) is “not detected”.
`C[C@@H](O)CC(=O)N[C@H](C(=O)O)[C@@H](C)O` [Keto-Thr]: in series [2], the “induction by ketone ester drink” value is given as “had not been observed to be induced by ketone ester drink”. In addition, the “induction of plasma keto amino acids on WFKD” value in series [3] was “Robust induction”.
Regarding `C[C@H](O)C(=O)O` [lactate], in series [1] (lactate alone with 20 mM phenylalanine), the “product formed with lactate and phenylalanine as only substrates” value is given as “exclusive production of Lac-Phe”.
In the case of `CC(C)[C@H](N)C(=O)O` [valine], in series [1], the “amino acid selectivity” value was “CNDP2 catalyzed BHB-ylation”.
`CSCC[C@H](NC(=O)CC(C)O)C(=O)O` (some centres unmarked) [BHB-Met, N-betahydroxybutyryl-methionine]: in series [4], the “BHB-amino acid synthesis activity in CNDP2-KO kidney and gut” value is given as “largely abolished”; the “synthesis activity in WT kidney and gut” value is “highest BHB-amino acid synthesis activity”. For the same molecule, the “body weight, head-to-head keto amino acids” value in series [5] (50 mg/kg/day IP) is listed as “effective in suppressing body weight”.
For `N[C@@H](Cc1ccccc1)C(=O)O` [phenylalanine, reference compound], the “body weight and food intake, conjugate vs components” value in series [5] (50 mg/kg/day IP, BHB or phenylalanine at the same doses, 9 days) is given as “without effect”. In series [1], the “amino acid selectivity” value was “CNDP2 catalyzed BHB-ylation”.
On to `CC[C@H](C)[C@H](N)C(=O)O` [isoleucine], for which the “amino acid selectivity” value in series [1] is recorded as “CNDP2 catalyzed BHB-ylation”.
For the molecule `C[C@@H](O)CC(=O)N[C@@H](CCC(N)=O)C(=O)O` [Keto-Gln], in series [2], the “induction by ketone ester drink” value is “had not been observed to be induced by ketone ester drink”. The “induction of plasma keto amino acids on WFKD” value in series [3] is given as “Robust induction”.
As to `NCCC(=O)N[C@@H](Cc1cnc[nH]1)C(=O)O` [carnosine], in series [6], the “carnosine hydrolysis across tissues” value is “highest activity in liver and quadriceps and little activity in the kidney, gut, and brain”. In addition, the “carnosinase activity, effect of CNDP2 ablation” value in series [6] (CNDP2-KO vs WT) is reported as “not sensitive to genetic ablation of CNDP2”.
On to `CC(C)C[C@H](NC(=O)CC(C)O)C(=O)O` (some centres unmarked) [BHB-Leu, N-betahydroxybutyryl-leucine], for which, in series [4], the “BHB-amino acid synthesis activity in CNDP2-KO kidney and gut” value is on record as “largely abolished”; the “synthesis activity in WT kidney and gut” value is listed as “highest BHB-amino acid synthesis activity”. In addition, the “body weight, head-to-head keto amino acids” value in series [5] (50 mg/kg/day IP) is “effective in suppressing body weight”.
With `CC(O)CC(=O)N[C@@H](Cc1c[nH]cn1)C(=O)O` (some centres unmarked) [BHB-His], in series [5] (50 mg/kg IP, 9 days), the “food intake and body weight, related metabolites and dipeptides” value was “failed to reduce food intake or body weight”.
